# Reference: BindingDB's records for doi:10.1074/jbc.M113.497990 (Vanderbilt University, 2013)
# What was measured:
# [1] = biological target: Sterol 14-alpha demethylase (Trypanosoma cruzi (strain CL Brener), UniProt Q7Z1V1); experiment: CYP51 Inhibition Assay; settings: pH 7.4; 37 °C
# Description: (§1) Briefly, the reaction mixture contained 1 uM CYP51, 2 uM cytochrome P450 reductase, 100 uM dilauroyl-alpha-phosphatidylcholine, 0.4 mg/ml isoctrate dehydrogenase, and 25mM sodium isocitrate in 20mM MOPS (pH 7.4), 50 mM KCl, 5 mM MgCl2, and 10% glycerol. After the addition of the 3H-radiolabeled sterol substrate (~2000 cpm/nmol, final concentration 50 uM) the mixture was preincubated for 5 min at 37 °C in a shaking water bath (GCA Precision Scientific). The reaction was initiated by the addition of 100 uM NADPH and stopped by extraction of the sterols with ethyl acetate. The reaction products were dried, dissolved in methanol, and analyzed by a reverse-phase HPLC system (Waters) equipped with a beta-RAM detector (INUS Systems, Inc.) using a Nova-Pak C18 column (particle size 4 uM, 3.9 x 150 mm) and a linear gradient consisting of water:acetonitrile:methanol (1.0:4.5:4.5) (solvent A) and methanol (solvent B) at a flow rate of 1 ml/min.
# Cytochrome P450 1A2 = biological target: T1, Cytochrome P450 1A2 (Homo sapiens, UniProt P05177); experiment: CYP Activity Assay; settings: 37 °C
# T1 sequence (P05177 whole entry): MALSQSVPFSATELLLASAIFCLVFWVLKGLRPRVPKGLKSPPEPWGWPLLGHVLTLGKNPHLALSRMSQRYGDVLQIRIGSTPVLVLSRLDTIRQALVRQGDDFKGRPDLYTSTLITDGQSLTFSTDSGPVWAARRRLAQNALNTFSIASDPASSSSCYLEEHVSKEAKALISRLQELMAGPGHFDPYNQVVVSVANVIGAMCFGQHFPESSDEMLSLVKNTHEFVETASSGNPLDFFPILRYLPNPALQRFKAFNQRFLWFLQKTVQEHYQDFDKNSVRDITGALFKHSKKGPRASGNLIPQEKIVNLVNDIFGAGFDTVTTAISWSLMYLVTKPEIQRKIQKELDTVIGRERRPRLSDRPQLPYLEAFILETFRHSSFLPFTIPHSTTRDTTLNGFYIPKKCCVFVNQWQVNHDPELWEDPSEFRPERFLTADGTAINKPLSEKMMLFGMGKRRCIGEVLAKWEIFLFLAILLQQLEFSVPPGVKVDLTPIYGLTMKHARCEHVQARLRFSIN
# Description: (§2) Inhibition of hepatic cytochromes P450 was assessed in human liver microsomes using a substrate-specific approach of monitoring metabolites formed by each specific CYP enzyme. Metabolic reactions included phenacetin-O-deethylation (1A2), tolbutamide methylhydroxylation (2C9), S-mephenytoin 4'-hydroxylation (2C19), dextrome-thorphan-[…] (2D6), and testosterone-6-β-hydroxylation (3A4). Each substrate was added at a concentration less than or equal to the Km for themetabolic pathway, and microsomal protein concentrations and assay incubation times were optimized for each reaction to ensure linear metabolite formation based on initial rates (Table 1). Microsomes were suspended in phosphate buffer and incubated at 37 °C in the presence of probe substrates. Reactions were initiated by the addition of an NADPH-regenerating buffer system and were quenched at the appropriate times using acetonitrile. Samples were centrifuged and concentrations of metabolites assessed by LC/MS.
# Cytochrome P450 2C19 = Cytochrome P450 2C19 (Homo sapiens, UniProt P33261); experiment: CYP Activity Assay; settings: 37 °C
# Cytochrome P450 2C19, sequence (P33261 whole entry): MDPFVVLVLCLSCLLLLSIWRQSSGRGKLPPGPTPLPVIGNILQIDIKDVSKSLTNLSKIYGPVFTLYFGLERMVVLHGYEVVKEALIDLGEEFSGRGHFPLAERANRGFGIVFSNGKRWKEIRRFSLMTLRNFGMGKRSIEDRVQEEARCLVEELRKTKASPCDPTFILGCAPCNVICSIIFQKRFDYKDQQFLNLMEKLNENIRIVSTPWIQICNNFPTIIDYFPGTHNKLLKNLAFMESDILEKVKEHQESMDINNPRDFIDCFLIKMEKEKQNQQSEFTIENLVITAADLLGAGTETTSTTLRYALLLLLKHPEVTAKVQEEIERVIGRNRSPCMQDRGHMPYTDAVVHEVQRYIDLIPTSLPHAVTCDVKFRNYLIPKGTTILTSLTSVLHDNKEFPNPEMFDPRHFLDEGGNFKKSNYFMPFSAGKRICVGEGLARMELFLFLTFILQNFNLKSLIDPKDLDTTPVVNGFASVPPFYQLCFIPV
# Description: as §2
# Cytochrome P450 2C9 = Cytochrome P450 2C9 (Homo sapiens, UniProt P11712); experiment: CYP Activity Assay; settings: 37 °C
# Cytochrome P450 2C9, sequence (P11712 whole entry): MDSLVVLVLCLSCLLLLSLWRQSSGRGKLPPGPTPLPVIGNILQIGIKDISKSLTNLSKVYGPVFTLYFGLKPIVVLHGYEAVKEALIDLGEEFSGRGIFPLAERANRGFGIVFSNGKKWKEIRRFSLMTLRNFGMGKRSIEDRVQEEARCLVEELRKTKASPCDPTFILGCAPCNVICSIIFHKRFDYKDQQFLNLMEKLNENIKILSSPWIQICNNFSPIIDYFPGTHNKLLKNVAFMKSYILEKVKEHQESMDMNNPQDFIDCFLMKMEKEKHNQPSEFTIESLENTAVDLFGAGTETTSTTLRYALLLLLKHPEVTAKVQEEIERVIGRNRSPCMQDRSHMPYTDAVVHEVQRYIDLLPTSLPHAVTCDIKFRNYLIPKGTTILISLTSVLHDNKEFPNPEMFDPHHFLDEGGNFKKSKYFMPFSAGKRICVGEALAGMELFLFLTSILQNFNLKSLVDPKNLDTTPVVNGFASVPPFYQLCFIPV
# Description: as §2
# Cytochrome P450 2D6 = Cytochrome P450 2D6 (Homo sapiens, UniProt P10635); experiment: CYP Activity Assay; settings: 37 °C
# Cytochrome P450 2D6, sequence (P10635 whole entry): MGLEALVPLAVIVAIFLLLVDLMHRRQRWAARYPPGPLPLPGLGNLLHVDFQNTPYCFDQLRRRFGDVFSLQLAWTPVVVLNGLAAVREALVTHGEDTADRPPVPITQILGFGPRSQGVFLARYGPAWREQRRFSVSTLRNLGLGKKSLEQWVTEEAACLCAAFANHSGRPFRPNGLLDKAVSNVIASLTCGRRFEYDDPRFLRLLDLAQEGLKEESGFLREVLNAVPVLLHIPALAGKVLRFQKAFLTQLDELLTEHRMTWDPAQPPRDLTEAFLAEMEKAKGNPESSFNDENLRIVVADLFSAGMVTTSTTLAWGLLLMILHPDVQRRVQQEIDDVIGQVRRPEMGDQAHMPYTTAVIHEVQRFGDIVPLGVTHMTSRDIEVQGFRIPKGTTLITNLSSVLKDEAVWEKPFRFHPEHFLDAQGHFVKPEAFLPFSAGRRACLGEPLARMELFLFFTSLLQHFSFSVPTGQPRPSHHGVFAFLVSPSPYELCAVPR
# Description: as §2
# [2] = biological target: T2, Lanosterol 14-alpha demethylase (Homo sapiens, UniProt Q16850); experiment: CYP51 Inhibition Assay; settings: pH 7.4; 37 °C
# T2 sequence (Q16850 whole entry): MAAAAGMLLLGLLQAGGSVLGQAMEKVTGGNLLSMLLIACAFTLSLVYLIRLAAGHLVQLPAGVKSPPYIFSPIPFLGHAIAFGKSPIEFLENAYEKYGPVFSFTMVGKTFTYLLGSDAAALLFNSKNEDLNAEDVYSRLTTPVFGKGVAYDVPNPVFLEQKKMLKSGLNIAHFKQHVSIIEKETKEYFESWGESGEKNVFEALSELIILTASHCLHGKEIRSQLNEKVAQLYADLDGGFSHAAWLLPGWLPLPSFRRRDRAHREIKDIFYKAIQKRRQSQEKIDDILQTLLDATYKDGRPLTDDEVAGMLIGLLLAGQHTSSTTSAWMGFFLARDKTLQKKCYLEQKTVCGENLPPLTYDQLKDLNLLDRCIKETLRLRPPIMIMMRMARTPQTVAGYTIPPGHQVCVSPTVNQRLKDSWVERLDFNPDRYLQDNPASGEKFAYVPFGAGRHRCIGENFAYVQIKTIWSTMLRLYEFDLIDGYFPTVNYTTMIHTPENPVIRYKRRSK
# Description: as §1
# [3] = biological target: Putative lanosterol 14-alpha-demethylase (Leishmania infantum, UniProt A2TEF2); experiment: CYP51 Inhibition Assay; settings: pH 7.4; 37 °C
# Putative lanosterol 14-alpha-demethylase, sequence (A2TEF2 whole entry): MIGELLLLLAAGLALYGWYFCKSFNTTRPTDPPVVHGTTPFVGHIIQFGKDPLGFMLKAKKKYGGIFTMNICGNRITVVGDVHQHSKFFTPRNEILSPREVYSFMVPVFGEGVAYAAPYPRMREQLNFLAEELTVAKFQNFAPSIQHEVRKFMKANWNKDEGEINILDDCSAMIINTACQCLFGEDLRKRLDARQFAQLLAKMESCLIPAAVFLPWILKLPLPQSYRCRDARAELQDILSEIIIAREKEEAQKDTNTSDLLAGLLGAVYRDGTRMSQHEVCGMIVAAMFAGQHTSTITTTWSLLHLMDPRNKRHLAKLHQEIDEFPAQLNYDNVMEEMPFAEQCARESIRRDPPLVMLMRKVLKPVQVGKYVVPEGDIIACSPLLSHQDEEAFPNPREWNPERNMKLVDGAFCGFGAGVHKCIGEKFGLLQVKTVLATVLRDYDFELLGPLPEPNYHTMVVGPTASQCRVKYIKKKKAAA
# Description: as §1
# Cytochrome P450 3A4 = Cytochrome P450 3A4 (Homo sapiens, UniProt P08684); experiment: CYP Activity Assay; settings: 37 °C
# Cytochrome P450 3A4, sequence (P08684 whole entry): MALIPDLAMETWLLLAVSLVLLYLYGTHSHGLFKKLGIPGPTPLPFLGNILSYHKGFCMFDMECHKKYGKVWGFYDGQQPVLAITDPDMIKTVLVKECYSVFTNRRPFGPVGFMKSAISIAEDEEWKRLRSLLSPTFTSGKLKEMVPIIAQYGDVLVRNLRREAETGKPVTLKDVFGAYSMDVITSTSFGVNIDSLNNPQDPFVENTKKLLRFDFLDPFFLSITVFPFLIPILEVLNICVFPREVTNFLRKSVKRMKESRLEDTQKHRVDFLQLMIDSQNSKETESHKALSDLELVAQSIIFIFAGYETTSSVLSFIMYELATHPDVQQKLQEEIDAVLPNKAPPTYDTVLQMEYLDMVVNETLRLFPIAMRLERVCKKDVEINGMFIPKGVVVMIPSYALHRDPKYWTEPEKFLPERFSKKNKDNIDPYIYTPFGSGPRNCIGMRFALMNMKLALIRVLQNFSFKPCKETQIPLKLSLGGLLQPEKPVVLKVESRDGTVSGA
# Description: as §2
# Sterol 14-alpha demethylase, sequence (Q7Z1V1 whole entry): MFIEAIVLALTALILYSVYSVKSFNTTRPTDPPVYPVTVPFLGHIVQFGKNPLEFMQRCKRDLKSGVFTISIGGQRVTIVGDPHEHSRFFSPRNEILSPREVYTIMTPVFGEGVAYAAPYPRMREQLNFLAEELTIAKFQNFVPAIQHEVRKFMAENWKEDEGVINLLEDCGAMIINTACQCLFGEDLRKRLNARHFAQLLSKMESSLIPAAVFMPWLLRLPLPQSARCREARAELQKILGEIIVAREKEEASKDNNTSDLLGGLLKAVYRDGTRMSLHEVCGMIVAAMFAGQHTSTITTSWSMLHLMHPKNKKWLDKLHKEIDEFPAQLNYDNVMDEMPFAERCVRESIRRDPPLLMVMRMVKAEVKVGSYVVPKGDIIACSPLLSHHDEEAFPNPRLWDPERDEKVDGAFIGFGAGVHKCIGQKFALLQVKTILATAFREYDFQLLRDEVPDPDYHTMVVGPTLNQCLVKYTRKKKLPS
SMILES,Kd [1],IC50 (Cytochrome P450 1A2),IC50 (Cytochrome P450 2C19),IC50 (Cytochrome P450 2C9),IC50 (Cytochrome P450 2D6),Kd [2],Kd [3],IC50 (Cytochrome P450 3A4)
O=C(N[C@@H](Cn1ccnc1)c1ccc(Cl)cc1Cl)c1ccc(-c2nnc(-c3ccccc3)o2)cc1 [VNI],0.015 µM,–,–,–,–,–,–,–
FC(F)(F)c1ccc(N(c2cccnc2)C2CCN(c3ccc(C(F)(F)F)cn3)CC2)cc1 [EPL-BS0967 (UDD)],0.032 µM,> 20 µM,9.8 µM,8.1 µM,20 µM,0.026 µM,0.419 µM,–
CC[C@@H]([C@H](C)O)n1ncn(-c2ccc(N3CCN(c4ccc(OCC5CO[C@@](Cn6cncn6)(c6ccc(F)cc6F)C5)cc4)CC3)cc2)c1=O (some centres not stated) [Posaconazole],–,–,–,–,–,–,0.018 µM,–
O=C([C@@H](c1ccc(Cl)cc1)c1cccnc1)N1CCN(c2ccc(C(F)(F)F)cc2)CC1 [EPL-BS1246 (UDO)],0.019 µM,> 20 µM,12 µM,9 µM,4 µM,0.069 µM,0.156 µM,20 µM
